Earlier results in patent US10052384B2, “Liquid antiseptic compositions containing iodine and a sugar and/or sugar alcohol” (3M INNOVATIVE PROPERTIES COMPANY, priority 2007, dated 2018).

Conditions: 25° C.

II [elemental iodine]
Solubility in water: 0.03 wt-%
